Measurements reported in BindingDB's records for doi:10.1111/j.1747-0285.2009.00857.x (Istituto Di Biostrutture E Bioimmagini-Cnr, 2009).

Key:
Experiment in all cases: Inhibition Assay
Conditions in all cases: pH 7.5; 20 °C
Carbonic anhydrase 12 = Carbonic anhydrase 12 (Homo sapiens, UniProt O43570)
Excerpt: (§1) Inhibition assay using carbonic anhydrases with an SX.18MV-R, a stopped-flow instrument from Applied Photophysics was used for assaying the CA catalyzed CO2 hydration activity.

Carbonic anhydrase 14 = Carbonic anhydrase 14 (Homo sapiens, UniProt Q9ULX7)
Excerpt: as §1

Carbonic anhydrase 3 = Carbonic anhydrase 3 (Homo sapiens, UniProt P07451)
Excerpt: as §1

Carbonic anhydrase 13 = Carbonic anhydrase 13 (Homo sapiens, UniProt Q8N1Q1)
Excerpt: as §1

Carbonic anhydrase 4 = Carbonic anhydrase 4 (Homo sapiens, UniProt P22748)
Excerpt: as §1

[1] = biological target: Carbonic anhydrase 5A, mitochondrial (Homo sapiens, UniProt P35218)
Excerpt: as §1

Carbonic anhydrase 6 = Carbonic anhydrase 6 (Homo sapiens, UniProt P23280)
Excerpt: as §1

Carbonic anhydrase 1 = Carbonic anhydrase 1 (Homo sapiens, UniProt P00915)
Excerpt: as §1

[2] = biological target: Carbonic anhydrase 5B, mitochondrial (Homo sapiens, UniProt Q9Y2D0)
Excerpt: as §1

Carbonic anhydrase 7 = Carbonic anhydrase 7 (Homo sapiens, UniProt P43166)
Excerpt: as §1

Carbonic anhydrase 2 = Carbonic anhydrase 2 (Homo sapiens, UniProt P00918)
Excerpt: as §1

Chain of Carbonic anhydrase 3 (P07451 whole entry): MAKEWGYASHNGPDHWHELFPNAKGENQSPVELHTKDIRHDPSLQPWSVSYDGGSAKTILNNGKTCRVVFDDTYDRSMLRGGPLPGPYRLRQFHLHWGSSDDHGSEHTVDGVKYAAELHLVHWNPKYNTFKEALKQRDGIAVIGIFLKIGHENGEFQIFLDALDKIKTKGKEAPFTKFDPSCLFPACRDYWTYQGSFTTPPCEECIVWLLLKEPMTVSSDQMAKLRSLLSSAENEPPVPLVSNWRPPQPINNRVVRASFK
Chain of Carbonic anhydrase 12 (O43570 whole entry): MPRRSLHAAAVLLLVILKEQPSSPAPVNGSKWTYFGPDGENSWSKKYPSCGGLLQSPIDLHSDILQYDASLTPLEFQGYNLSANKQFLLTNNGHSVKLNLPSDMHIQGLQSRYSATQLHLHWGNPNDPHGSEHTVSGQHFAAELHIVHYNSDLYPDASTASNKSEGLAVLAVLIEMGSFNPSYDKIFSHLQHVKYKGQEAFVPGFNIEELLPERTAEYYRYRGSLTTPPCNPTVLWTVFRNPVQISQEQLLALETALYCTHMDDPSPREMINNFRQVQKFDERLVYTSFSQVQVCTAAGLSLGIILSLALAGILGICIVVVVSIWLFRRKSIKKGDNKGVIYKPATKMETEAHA
Chain of Carbonic anhydrase 5A, mitochondrial (P35218 whole entry): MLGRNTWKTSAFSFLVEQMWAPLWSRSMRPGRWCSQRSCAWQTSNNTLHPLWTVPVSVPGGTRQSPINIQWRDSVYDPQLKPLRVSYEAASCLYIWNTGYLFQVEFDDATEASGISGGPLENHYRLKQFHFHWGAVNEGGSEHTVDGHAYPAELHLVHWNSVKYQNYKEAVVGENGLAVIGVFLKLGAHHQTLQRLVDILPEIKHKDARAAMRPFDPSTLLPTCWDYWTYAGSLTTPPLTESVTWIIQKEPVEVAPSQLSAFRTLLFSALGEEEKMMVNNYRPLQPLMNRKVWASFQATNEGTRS
Chain of Carbonic anhydrase 4 (P22748 whole entry): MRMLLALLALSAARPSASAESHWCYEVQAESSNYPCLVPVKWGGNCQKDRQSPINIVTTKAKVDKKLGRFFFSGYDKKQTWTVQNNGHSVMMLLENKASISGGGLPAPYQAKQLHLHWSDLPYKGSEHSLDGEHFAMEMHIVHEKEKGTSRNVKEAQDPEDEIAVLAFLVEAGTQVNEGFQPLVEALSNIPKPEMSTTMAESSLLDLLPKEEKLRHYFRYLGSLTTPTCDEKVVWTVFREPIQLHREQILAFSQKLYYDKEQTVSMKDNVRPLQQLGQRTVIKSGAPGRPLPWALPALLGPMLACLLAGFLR
Chain of Carbonic anhydrase 13 (Q8N1Q1 whole entry): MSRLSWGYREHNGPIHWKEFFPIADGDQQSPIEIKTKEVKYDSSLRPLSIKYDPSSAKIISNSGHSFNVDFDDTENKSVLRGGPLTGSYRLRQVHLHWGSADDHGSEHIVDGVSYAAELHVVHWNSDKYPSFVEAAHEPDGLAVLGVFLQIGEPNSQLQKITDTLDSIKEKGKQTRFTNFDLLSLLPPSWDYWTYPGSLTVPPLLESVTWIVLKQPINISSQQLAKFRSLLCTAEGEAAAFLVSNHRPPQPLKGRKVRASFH
Chain of Carbonic anhydrase 14 (Q9ULX7 whole entry): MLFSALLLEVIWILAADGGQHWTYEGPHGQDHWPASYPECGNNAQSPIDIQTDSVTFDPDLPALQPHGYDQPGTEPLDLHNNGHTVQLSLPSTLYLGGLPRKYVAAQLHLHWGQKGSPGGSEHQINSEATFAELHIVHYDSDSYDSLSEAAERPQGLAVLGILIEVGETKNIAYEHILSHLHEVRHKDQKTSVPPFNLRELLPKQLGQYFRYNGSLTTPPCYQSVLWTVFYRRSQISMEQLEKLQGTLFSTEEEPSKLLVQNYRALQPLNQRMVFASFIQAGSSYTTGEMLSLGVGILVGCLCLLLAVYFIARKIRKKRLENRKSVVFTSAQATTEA
Chain of Carbonic anhydrase 1 (P00915 whole entry): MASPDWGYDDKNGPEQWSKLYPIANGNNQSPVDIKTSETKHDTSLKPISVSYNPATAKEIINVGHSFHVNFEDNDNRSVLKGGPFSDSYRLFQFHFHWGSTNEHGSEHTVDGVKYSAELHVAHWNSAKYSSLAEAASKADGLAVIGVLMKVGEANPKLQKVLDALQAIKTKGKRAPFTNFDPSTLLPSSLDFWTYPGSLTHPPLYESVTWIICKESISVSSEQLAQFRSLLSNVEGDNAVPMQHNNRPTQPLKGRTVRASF
Chain of Carbonic anhydrase 5B, mitochondrial (Q9Y2D0 whole entry): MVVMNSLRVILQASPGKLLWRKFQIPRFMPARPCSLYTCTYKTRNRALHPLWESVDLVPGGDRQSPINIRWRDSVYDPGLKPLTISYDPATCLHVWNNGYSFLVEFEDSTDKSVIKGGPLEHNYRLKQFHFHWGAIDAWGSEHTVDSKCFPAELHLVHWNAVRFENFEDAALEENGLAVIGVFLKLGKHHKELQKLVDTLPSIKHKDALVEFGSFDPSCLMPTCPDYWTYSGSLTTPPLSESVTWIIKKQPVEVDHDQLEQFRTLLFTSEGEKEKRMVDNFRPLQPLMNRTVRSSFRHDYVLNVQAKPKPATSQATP
Chain of Carbonic anhydrase 7 (P43166 whole entry): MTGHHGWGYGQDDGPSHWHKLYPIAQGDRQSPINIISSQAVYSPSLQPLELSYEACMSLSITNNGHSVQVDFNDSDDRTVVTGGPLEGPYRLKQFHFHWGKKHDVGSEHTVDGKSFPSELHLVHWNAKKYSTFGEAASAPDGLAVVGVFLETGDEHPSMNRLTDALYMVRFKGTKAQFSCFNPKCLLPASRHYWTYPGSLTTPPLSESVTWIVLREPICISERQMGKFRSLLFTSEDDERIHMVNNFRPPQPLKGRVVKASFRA
Chain of Carbonic anhydrase 6 (P23280 whole entry): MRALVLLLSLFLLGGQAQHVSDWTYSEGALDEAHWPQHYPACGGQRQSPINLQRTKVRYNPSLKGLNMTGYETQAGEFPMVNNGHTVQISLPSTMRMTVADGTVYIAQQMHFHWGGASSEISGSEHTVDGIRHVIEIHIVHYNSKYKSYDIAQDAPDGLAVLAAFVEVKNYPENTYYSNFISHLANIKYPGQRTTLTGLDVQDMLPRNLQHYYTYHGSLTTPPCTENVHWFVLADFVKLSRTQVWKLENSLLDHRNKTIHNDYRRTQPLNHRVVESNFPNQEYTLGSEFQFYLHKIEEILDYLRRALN

Row | SMILES | Ki (Carbonic anhydrase 12) | Ki (Carbonic anhydrase 14) | Ki (Carbonic anhydrase 3) | Ki (Carbonic anhydrase 13) | Ki (Carbonic anhydrase 4) | Ki [1] | Ki (Carbonic anhydrase 6) | Ki (Carbonic anhydrase 1) | Ki [2] | Ki (Carbonic anhydrase 7) | Ki (Carbonic anhydrase 2)
1 | CC1(C)O[C@@H]2[C@@H](CC[C@@]3(COS(N)(=O)=O)OC(C)(C)O[C@@H]23)O1 | 3.8 nM | 1460 nM | 780000 nM | 47 nM | 4900 nM | 63 nM | 45 nM | 250 nM | 30 nM |  | 
2 | NS(=O)(=O)c1nnc(NC(=O)[C@]23C[C@H]4C[C@H](C[C@H](C4)C2)C3)s1 [Investigational agent, 4] | 0.9 nM |  | 310000 nM |  |  |  |  | 850 nM |  | 0.5 nM | 
3 | NS(=O)(=O)c1nnc(NC(=O)N[C@]23C[C@H]4C[C@H](C[C@H](C4)C2)C3)s1 [Investigational agent, 5] | 4.7 nM | 15 nM | 330000 nM | 39 nM | 30 nM | 135 nM | 31 nM | 810 nM | 45 nM | 1.3 nM | 13 nM
4 | NS(=O)(=O)c1ccc(N2CCCCS2(=O)=O)cc1 [Ospolot] |  | 1540 nM | 630000 nM | 1450 nM | 95 nM | 81 nM |  |  | 91 nM |  | 
